From ChEMBL document CHEMBL5104100, “Synthesis and Preclinical Characterization of LY3154885, a Human Dopamine D1 Receptor Positive Allosteric Modulator with an Improved Nonclinical Drug-Drug Interaction Risk Profile” (J Med Chem, 2022)
pEC50: −log10 of the molar value. In brackets after ≈: the same amount, converted by molar mass.

How the values were obtained:
Cytochrome P450 = assay: Drug metabolism in human hepatocytes assessed as fraction of Cyp mediated oxidative metabolism in presence of NADPH; type: ADME, cell-based, Hepatocyte
CYP3A4 [1] = molecular target: T1, CYP3A4 (Homo sapiens, UniProt P08684); assay: Induction of CYP3A4 in human hepatocytes assessed as maximum efficacy relative to control
CYP3A4 [2] = molecular target: T1, CYP3A4; assay: Induction of CYP3A4 in human hepatocytes; type: ADME, cell-based, Hepatocyte
D(1A) dopamine receptor = D(1A) dopamine receptor (Homo sapiens, UniProt P21728); assay: Positive allosteric modulation of human D1 receptor in HEK293 cells assessed as increase in cyclic AMP production measured after 60 mins in presence of dopamine by HTRF assay; type: cell-based
[3] = Solubility of compound at pH 6 by HTSA assay; type: physicochemical; settings: buffer

D(1A) dopamine receptor, sequence (P21728 whole entry): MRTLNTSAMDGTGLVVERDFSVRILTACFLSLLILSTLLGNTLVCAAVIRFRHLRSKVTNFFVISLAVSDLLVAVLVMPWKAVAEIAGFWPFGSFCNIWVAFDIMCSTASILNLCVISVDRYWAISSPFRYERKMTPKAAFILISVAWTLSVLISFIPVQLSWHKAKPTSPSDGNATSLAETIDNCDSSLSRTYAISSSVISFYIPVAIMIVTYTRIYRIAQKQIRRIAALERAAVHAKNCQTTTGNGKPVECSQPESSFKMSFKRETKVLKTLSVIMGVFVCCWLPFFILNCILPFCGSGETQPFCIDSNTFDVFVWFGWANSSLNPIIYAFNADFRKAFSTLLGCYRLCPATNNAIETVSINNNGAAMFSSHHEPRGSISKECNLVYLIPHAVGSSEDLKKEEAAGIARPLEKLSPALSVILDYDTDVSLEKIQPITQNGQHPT
T1 sequence (P08684 whole entry): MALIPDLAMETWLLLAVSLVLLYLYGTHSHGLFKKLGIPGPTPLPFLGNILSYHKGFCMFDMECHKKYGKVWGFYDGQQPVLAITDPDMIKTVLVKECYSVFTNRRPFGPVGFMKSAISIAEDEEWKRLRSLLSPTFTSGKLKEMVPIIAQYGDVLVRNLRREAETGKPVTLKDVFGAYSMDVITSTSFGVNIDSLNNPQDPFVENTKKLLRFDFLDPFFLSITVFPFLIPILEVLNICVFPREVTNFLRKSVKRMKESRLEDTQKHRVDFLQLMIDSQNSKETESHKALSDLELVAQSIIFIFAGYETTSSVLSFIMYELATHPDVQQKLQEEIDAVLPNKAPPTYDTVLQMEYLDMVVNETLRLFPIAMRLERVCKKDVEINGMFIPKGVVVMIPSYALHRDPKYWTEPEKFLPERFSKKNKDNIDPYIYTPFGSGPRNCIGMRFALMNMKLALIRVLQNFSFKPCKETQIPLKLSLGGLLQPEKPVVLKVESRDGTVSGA

Row | Structure (SMILES) | Fm (Cytochrome P450) | Emax (CYP3A4 [1]) [%] | pEC50 (CYP3A4 [2]) | pEC50 (D(1A) dopamine receptor) | solubility [3] [µg/mL]
1 | C[C@H]1c2cccc(CCC(C)(C)O)c2C[C@H](CO)N1C(=O)Cc1c(Cl)cccc1Cl | 0.6 | 42 | 5.26 |  | 
2 | C[C@H]1c2cccc(-c3cn[nH]c3)c2C[C@H](CO)N1C(=O)Cc1c(Cl)cccc1Cl |  |  |  | 8.19 | 27 (≈ 62.7 µM)
3 | C[C@H]1c2cccc(-c3cnn(C4CC4)c3)c2C[C@H](CO)N1C(=O)Cc1c(Cl)cccc1Cl |  |  |  | 7.99 | 2 (≈ 4.25 µM)
4 | CCn1cc(-c2cccc3c2C[C@H](CO)N(C(=O)Cc2c(Cl)cccc2Cl)[C@H]3C)cn1 |  |  |  | 7.80 | 12 (≈ 26.2 µM)
5 | C[C@H]1c2cccc(-c3cnn(C4COC4)c3)c2C[C@H](CO)N1C(=O)Cc1c(Cl)cccc1Cl |  |  |  |  | 35 (≈ 72 µM)
